# Measurements taken from ChEMBL document CHEMBL1201862, “PubChem BioAssay data set” (2004).
# The source made the active and inactive calls.
# Assays:
# [1] = target: T1, Cysteine protease ATG4B (Homo sapiens, UniProt Q9Y4P1); type: functional;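 further: Fluorescence-based dose-response confirmation assay measuring inhibition of ATG4B activity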
# T1 sequence (Q9Y4P1 whole entry): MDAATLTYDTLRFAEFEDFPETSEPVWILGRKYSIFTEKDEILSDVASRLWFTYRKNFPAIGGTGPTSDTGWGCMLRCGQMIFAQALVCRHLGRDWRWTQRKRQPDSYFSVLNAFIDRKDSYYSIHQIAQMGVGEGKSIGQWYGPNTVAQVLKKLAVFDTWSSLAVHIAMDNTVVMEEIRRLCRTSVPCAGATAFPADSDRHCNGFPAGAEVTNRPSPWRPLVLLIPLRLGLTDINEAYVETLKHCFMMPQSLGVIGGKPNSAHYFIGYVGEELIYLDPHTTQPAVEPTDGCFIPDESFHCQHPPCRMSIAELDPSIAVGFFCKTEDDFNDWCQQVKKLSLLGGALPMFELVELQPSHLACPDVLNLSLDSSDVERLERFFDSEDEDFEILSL
# [2] = target: T2, Small ubiquitin-related modifier 1 (Homo sapiens, UniProt P63165); experiment: SUMO1 protein interaction blockers, potency – biochemical, fluorescence polarization, uHTS hits, dose response (AID 624382); type: functional; conditions: read-out: IC50_Mean
# T2 sequence (P63165 whole entry): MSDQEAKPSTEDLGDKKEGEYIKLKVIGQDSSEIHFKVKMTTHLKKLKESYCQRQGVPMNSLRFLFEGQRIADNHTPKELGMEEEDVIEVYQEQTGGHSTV
# [3] = target: T3, Zinc finger protein mex-5 (Caenorhabditis elegans, UniProt Q9XUB2); experiment: potency of MEX-5 RNA-binding blockers – biochemical, C. elegans, fluorescence polarization, dose response (AID 1960)
# T3 sequence (Q9XUB2 whole entry): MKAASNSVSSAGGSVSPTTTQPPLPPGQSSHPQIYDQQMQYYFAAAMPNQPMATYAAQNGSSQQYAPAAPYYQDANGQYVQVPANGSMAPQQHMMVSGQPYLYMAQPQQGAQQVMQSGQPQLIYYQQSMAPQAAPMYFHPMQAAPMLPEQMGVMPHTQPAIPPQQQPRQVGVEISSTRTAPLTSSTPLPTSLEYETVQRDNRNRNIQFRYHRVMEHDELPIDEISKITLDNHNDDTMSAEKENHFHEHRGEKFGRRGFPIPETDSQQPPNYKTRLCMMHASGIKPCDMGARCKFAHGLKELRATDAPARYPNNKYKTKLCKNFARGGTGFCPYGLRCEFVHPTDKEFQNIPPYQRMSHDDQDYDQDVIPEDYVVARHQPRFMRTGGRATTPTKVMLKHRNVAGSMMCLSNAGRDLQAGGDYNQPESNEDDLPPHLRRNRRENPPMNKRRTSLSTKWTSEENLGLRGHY
# [4] = target: Genome polyprotein (dengue virus type 2, UniProt P29990); experiment: flavivirus cap methylation enzyme inhibition – biochemical, confirmation dose response, primary screen (AID 588689); type: functional
# [5] = target: 26S proteasome non-ATPase regulatory subunit 14 (Homo sapiens, UniProt O00487); experiment: inhibition of proteasome subunit RPN11 – biochemical, fluorescence polarization, uHTS hits, confirmation (AID 602368); type: functional
# Chain of 26S proteasome non-ATPase regulatory subunit 14 (O00487 whole entry): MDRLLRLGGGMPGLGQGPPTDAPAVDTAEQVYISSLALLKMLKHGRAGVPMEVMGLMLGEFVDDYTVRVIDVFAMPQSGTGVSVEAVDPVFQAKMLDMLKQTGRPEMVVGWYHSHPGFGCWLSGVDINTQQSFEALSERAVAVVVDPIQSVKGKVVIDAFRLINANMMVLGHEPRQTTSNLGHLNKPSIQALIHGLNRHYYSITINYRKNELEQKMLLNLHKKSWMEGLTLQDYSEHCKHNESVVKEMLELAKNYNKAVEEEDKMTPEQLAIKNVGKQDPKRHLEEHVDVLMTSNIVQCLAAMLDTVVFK
# [6] = target: 72 kDa type IV collagenase (Homo sapiens, UniProt P08253); experiment: Dose Response validation of uHTS RPN11 inhibitor hits using a MMP-2 Fluorescence assay.; type: functional
# [7] = target: Large T antigen (Simian virus 40, UniProt P03070); type: functional, Betapolyomavirus macacae;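 further: Confirmatory-stage PubChem screen for compounds that inhibit SV40 T antigen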
# Chain of Large T antigen (P03070 whole entry, the tested form may be a part): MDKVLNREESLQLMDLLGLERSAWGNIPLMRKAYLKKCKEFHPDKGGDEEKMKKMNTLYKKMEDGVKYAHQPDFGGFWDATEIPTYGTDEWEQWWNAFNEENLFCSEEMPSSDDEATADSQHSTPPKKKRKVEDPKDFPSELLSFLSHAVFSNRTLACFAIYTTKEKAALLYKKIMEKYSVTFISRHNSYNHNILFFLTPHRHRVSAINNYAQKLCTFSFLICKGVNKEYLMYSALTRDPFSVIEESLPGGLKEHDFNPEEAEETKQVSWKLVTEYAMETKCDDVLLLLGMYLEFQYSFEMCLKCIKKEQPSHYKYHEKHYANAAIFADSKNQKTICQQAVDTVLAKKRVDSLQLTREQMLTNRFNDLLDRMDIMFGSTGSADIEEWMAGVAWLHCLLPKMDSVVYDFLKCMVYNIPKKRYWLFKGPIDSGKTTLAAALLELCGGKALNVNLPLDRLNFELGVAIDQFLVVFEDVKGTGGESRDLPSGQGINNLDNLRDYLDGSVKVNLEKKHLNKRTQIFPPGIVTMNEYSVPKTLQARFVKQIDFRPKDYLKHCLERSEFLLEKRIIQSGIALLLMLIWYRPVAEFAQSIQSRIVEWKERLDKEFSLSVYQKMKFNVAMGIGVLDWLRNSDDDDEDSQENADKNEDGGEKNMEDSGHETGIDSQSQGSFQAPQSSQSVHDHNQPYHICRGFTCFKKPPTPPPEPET
# [8] = target: T4, RNA-binding protein pos-1 (Caenorhabditis elegans, UniProt G5EF15); experiment: disruptors of C. elegans POS-1 RNA interaction – biochemical, fluorescence polarization, dose response (AID 1964);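 further: purified POS-1 fused to maltose binding protein made in E. coli; potency of compounds blocking POS-1 binding to fluorescent RNA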
# T4 sequence (G5EF15 whole entry): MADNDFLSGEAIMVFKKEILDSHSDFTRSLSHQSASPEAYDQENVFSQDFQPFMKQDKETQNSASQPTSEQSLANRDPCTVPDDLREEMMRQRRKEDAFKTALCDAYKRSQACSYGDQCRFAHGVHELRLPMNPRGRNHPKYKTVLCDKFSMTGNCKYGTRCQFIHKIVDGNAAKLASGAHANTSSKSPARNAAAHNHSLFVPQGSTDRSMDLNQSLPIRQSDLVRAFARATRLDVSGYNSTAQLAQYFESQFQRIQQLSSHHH
# [9] = target: Prothrombin (Bos taurus, UniProt P00735); experiment: thrombin protease inhibitors – biochemical, fluorescence polarization, uHTS hits, dose response (AID 602369); type: functional
# [10] = target: T2, Small ubiquitin-related modifier 1; experiment: SUMO1 protein-protein binding blockers, potency – biochemical, FRET, dose response (AID 624383); type: functional; conditions: read-out: IC50_Mean
# [11] = target: T5, ORF 73 (Human herpesvirus 8, UniProt O40947); experiment: KSHV LANA DNA-binding disruption – biochemical, fluorescence polarization, cherry-picked samples, dose response (AID 504725); parameters: species or system Human gammaherpesvirus 8;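 further: fluorescence polarization of a labeled DNA duplex reporting LANA DNA binding; potency is for inhibitors that block LANA binding to the DNA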
# T5 sequence (O40947 whole entry): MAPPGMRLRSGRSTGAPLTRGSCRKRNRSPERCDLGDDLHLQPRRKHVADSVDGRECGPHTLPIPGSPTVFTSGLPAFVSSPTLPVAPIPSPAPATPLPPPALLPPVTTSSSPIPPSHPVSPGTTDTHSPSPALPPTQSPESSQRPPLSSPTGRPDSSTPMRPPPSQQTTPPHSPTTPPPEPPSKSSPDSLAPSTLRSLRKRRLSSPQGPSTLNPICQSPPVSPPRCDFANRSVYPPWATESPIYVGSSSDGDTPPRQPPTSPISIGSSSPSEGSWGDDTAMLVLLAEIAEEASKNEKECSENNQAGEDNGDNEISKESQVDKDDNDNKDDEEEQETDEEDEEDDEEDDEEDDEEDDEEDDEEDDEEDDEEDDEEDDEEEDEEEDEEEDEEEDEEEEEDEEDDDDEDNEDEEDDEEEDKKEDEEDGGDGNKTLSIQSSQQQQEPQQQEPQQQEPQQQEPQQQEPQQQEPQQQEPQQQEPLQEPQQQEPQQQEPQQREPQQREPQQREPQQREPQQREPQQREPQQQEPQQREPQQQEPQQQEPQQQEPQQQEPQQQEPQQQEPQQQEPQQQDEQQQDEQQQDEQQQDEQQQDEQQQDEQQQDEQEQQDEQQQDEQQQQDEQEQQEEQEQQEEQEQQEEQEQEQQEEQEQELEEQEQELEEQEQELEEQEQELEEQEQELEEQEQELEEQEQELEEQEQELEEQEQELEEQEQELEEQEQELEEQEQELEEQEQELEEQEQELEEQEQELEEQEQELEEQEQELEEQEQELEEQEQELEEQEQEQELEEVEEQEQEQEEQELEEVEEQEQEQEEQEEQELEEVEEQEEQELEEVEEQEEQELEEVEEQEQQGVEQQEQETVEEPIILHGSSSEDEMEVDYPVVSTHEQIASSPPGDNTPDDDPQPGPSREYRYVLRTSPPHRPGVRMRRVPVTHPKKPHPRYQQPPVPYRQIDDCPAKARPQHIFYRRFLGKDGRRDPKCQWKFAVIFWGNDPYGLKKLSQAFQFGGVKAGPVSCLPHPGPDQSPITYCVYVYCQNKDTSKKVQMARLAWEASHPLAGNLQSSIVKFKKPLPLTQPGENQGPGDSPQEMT
# [12] = target: Phospholipase A2 (Homo sapiens, UniProt P04054); type: functional;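 further: confirmatory dose-response counterscreen on phospholipase A2, testing hits that came from an ultra-high-throughput screen for ATG4B inhibitors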
# Chain of Phospholipase A2 (P04054 whole entry): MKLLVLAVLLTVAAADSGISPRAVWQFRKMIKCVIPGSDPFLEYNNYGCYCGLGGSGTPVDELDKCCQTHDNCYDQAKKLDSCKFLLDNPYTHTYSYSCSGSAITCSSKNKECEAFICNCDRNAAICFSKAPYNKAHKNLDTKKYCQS
# [13] = target: T6, Orexin/Hypocretin receptor type 1 (Homo sapiens, UniProt O43613); experiment: (§1) Fluorescence-based cell-based high throughput dose response assay for antagonists of the orexin 1 receptor (OX1R; HCRTR1). [Related pubchem assays (depositor defined):AID434989, AID435008, AID463079, AID485270, AID492963, AID492964, AID492965, AID493232, AID504717, AID504718]; type: functional
# T6 sequence (O43613 whole entry): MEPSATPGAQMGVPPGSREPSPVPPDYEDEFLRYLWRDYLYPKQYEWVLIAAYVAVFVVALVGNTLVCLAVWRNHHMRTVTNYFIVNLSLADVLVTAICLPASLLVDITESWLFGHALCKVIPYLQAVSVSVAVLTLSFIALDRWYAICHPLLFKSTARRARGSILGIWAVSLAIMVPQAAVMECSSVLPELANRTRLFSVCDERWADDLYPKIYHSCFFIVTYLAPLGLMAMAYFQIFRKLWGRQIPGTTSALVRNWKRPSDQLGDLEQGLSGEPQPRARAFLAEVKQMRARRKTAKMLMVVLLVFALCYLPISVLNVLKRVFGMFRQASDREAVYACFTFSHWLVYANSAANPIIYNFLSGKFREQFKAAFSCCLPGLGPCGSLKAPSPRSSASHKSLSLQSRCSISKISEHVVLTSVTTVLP
# [14] = target: T6, Orexin/Hypocretin receptor type 1; experiment: as §1, with “Homogeneous Time Resolved Fluorescence (HTRF)-based” for “Fluorescence-based”; type: functional
# [15] = system: CHO-K1; experiment: (§2) Counterscreen for antagonists of the orexin 1 receptor (OX1R; HCRTR1): Homogeneous time resolved fluorescence (HTRF)-based cell-based dose response assay to identify antagonists of the parental CHO-K1 cell line. [Related pubchem assays (depositor defined):AID434989, AID435008, AID463079, AID485270, AID492963, AID492964, AID492965, AID493232, AID504699, AID504701]; type: functional; conditions: Cricetulus griseus
# [16] = as §2, with “Fluorescence-based” for “Homogeneous time resolved fluorescence (HTRF)-based”, “cell-based high throughput” for “cell-based”, “CHO” for “CHO-K1”; type: functional
# [17] = target: T7, Orexin receptor type 2 (Homo sapiens, UniProt O43614); experiment: Counterscreen assay for antagonists of the orexin 1 receptor (OX1R; HCRTR1): Fluorescence-based cell-based dose response assay for antagonists of the orexin 2 receptor (OX2R; HCRTR2), run by assay provider.; type: functional
# T7 sequence (O43614 whole entry): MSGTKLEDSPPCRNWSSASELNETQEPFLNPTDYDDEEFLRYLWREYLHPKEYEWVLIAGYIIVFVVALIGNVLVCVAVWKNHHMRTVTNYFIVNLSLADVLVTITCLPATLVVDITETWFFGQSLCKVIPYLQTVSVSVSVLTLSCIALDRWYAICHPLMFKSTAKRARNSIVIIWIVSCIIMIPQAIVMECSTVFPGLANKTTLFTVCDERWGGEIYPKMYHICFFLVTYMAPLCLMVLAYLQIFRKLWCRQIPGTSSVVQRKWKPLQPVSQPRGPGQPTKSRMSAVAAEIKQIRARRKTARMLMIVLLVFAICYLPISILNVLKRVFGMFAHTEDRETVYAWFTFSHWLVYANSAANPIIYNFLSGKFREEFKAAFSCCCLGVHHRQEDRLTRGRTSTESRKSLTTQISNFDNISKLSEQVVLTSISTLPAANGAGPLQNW
# [18] = target: T7, Orexin receptor type 2; experiment: Counterscreen assay for antagonists of the orexin 1 receptor (OX1R; HCRTR1): Homogeneous Time Resolved Fluorescence (HTRF)-based cell-based dose response assay for antagonists of the orexin 2 receptor (OX2R; HCRTR2), run by assay provider.; type: functional
# [19] = target: DNA (cytosine-5)-methyltransferase 1 (Homo sapiens, UniProt P26358); experiment: inhibition of DNA methylation by DNMT1 – biochemical, fluorescent molecular beacon, confirmation (AID 602386); type: functional
# [20] = target: Melanocortin receptor 4 (Homo sapiens, UniProt P32245); experiment: inhibitors of MC4R cAMP signaling – cell-based, TR-FRET, biased antagonists, dose response (AID 602298); type: functional;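 further: antagonist potency against agonist-stimulated cAMP production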
# Chain of Melanocortin receptor 4 (P32245 whole entry): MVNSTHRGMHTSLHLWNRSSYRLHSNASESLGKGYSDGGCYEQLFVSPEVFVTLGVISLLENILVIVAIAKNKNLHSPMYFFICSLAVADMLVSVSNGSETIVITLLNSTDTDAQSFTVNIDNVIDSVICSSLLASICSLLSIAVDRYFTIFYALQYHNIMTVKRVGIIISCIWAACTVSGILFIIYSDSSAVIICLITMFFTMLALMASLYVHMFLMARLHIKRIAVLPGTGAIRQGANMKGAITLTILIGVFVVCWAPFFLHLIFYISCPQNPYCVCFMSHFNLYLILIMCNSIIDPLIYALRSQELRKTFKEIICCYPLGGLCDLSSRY
# [21] = cAMP pathway inhibition in counterscreen cell line – TR-FRET cAMP detection, counter-screen for MC4R biased antagonist project, dose response (AID 602305); type: functional, cell-based;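 further: U2OS cells stimulated with forskolin near its EC80 as the cAMP inducer; potency is for inhibition of forskolin-stimulated cAMP signaling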
# [22] = target: Tyrosine-protein kinase JAK3 (Homo sapiens, UniProt P52333); type: functional
# Chain of Tyrosine-protein kinase JAK3 (P52333 whole entry): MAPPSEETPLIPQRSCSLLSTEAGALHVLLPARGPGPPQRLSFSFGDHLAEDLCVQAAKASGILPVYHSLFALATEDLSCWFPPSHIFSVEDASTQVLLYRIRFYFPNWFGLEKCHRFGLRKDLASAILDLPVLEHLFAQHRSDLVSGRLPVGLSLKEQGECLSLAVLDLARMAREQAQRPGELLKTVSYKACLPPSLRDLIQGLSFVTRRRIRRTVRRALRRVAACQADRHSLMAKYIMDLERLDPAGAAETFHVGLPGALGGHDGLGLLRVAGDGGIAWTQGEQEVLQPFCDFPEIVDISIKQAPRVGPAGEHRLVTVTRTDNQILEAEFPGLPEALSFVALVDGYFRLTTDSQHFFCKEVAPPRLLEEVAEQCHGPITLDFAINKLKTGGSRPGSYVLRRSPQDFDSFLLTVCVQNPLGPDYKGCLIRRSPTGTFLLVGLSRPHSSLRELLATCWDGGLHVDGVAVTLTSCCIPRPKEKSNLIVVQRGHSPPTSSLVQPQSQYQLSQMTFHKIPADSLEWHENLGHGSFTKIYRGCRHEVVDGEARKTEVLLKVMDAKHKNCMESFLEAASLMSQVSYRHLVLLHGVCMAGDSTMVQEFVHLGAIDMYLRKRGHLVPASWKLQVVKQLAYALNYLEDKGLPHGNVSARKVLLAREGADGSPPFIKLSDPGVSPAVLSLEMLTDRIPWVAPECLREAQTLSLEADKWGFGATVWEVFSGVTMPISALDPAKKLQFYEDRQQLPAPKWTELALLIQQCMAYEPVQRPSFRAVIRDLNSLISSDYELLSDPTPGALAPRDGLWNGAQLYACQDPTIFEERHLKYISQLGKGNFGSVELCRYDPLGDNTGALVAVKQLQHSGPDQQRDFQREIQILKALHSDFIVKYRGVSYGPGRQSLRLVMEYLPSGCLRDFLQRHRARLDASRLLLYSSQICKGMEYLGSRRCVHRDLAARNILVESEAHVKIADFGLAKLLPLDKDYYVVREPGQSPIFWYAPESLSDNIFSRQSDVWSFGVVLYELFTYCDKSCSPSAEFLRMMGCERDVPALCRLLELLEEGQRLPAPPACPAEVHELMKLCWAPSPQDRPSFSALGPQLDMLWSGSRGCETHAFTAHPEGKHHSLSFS
# [23] = target: ALK tyrosine kinase receptor (Homo sapiens, UniProt Q9UM73); type: functional;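 further: ALK tested as one member of a kinase panel screen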
# Chain of ALK tyrosine kinase receptor (Q9UM73 whole entry): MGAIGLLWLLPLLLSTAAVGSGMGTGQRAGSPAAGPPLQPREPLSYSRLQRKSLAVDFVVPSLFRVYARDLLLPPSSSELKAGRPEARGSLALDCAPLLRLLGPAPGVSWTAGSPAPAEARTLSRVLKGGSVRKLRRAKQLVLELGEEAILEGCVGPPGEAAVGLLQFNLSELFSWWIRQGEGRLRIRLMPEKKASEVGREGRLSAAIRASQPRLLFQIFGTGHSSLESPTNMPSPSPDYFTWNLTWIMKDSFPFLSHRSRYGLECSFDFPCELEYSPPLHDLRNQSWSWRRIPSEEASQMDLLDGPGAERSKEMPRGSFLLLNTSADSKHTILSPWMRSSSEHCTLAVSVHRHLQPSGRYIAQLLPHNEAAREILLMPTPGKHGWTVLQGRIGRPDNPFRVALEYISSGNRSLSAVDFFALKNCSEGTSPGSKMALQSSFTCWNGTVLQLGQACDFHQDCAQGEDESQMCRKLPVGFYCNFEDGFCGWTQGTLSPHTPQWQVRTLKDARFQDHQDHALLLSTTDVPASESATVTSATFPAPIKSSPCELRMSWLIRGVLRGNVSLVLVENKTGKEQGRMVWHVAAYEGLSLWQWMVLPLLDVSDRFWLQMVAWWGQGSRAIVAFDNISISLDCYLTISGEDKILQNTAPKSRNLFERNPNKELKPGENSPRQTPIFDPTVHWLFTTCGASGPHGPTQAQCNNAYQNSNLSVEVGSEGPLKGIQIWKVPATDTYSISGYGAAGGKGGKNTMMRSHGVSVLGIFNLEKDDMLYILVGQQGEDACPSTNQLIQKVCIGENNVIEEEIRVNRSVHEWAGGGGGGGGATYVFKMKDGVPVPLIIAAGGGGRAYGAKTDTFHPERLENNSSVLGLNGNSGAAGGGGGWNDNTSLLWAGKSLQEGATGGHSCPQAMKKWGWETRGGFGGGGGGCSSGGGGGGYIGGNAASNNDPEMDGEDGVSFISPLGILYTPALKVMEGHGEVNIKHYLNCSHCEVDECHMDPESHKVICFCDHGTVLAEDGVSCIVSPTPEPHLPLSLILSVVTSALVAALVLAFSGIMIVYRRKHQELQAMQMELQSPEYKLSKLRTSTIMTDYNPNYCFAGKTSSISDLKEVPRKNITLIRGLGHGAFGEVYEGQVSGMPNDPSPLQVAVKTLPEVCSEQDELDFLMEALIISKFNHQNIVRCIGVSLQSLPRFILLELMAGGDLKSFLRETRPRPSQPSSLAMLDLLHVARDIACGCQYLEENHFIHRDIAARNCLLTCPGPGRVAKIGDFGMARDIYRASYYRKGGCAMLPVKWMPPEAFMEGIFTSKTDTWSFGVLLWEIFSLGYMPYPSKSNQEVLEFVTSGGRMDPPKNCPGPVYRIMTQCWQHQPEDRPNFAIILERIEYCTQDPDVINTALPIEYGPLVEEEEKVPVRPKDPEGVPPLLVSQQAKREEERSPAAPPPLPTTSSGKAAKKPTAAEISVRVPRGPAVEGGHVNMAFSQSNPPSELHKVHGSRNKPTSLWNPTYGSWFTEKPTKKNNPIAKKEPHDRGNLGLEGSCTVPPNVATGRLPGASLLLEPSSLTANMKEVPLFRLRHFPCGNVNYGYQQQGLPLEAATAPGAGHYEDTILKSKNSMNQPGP
# [24] = target: Aurora kinase A (Homo sapiens, UniProt O14965); type: functional;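 further: value from the Navigating the Kinome kinase panel profiling, panel entry STK6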
# Chain of Aurora kinase A (O14965 whole entry): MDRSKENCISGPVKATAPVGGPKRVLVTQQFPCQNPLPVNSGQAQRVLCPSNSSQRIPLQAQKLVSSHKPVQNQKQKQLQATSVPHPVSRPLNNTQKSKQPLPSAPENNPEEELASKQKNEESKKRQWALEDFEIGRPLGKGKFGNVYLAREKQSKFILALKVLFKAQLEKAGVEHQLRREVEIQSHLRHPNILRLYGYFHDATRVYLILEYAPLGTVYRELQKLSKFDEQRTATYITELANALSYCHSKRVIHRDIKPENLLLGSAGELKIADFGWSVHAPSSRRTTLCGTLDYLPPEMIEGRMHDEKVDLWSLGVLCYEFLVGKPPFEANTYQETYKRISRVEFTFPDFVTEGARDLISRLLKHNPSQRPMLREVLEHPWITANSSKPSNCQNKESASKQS
# [25] = target: Mitochondrial peptide methionine sulfoxide reductase (Bos taurus, UniProt P54149); type: functional;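 further: absorbance read-out, biochemical high-throughput dose-response screen for MsrA inhibitors, confirmatory; recombinant bovine MsrA coupled to E. coli TrxB with NADPH and selenocystamine; potency is for inhibitors of MsrA activity on DMSO substrate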
# Chain of Mitochondrial peptide methionine sulfoxide reductase (P54149 whole entry): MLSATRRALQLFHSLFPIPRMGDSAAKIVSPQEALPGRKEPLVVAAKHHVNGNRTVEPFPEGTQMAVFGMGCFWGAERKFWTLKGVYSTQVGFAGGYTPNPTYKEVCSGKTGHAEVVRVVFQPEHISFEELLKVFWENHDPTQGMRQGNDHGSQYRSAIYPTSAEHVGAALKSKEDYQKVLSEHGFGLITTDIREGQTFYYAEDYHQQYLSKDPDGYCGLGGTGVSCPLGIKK
# [26] = target: Dual specificity protein kinase CLK2 (Homo sapiens, UniProt P49760); type: functional
# [27] = target: G protein-coupled receptor kinase 5 (Homo sapiens, UniProt P34947); experiment: Navigating the Kinome. Panel member name: GPRK5; type: functional
compound,measurement,setting,value
O=c1[nH]c(=S)[nH]c2c1C(c1ccc(Br)cc1)c1c([nH]c(=S)[nH]c1=O)O2,IC50,[1],2.96 µM (active)
same,IC50,[2],> 66.6 µM (inactive)
same,EC50,[3],4.53 µM (active)
same,IC50,[4],73.7 µM (active)
same,IC50,[5],14.5 µM (active)
same,IC50,[6],0.0169 µM (active)
same,IC50,[7],21.4 µM (active)
same,EC50,[8],4.86 µM (inconclusive)
same,IC50,[9],20.8 µM (active)
same,IC50,[10],10.3 µM (active)
same,AC50,[11],281 µM (active)
same,IC50,[12],29.2 µM (inactive)
CCSC1=C(C#N)C(c2ccccc2Cl)C(C(=O)c2cccs2)C(O)(C(F)(F)F)N1 (stereo not drawn),IC50,[13],0.878 µM (active)
same,IC50,[14],0.174 µM (active)
same,IC50,[15],> 66.2 µM (inactive)
same,IC50,[16],33.9 µM (inactive)
same,IC50,[17],20 µM (inactive)
same,IC50,[18],> 50 µM (inactive)
CCOC(=O)C1=C(COC(=O)/C=C/c2cccc(OC)c2)NC(=O)NC1C (stereo not drawn),IC50,[13],15.3 µM (inactive)
same,IC50,[14],8.33 µM (active)
same,IC50,[15],> 66.2 µM (inactive)
same,IC50,[16],> 49.8 µM (inactive)
same,IC50,[17],> 88.8 µM (inactive)
same,IC50,[18],> 50 µM (inactive)
CCOC(=O)C(NC(=O)CC(C)C)(Nc1sc2c(c1C(N)=O)CCCC2)C(F)(F)F (stereo not drawn),IC50,[19],> 99 µM (inactive)
COC(=O)c1sc(N)c(C(=O)OC)c1COC(=O)CNS(=O)(=O)c1ccc(C)c(C)c1,IC50,[20],> 64.6 µM (inactive)
same,IC50,[21],> 64.6 µM (inactive)
CC(C)CC(NC(=O)c1cccc(-n2nc(C(C)(C)C)cc2NC(=O)Nc2cccc3ccccc23)c1)C(N)=O (stereo not drawn),Ki,[22],5.01 µM (active)
Cc1cccc(NC(=O)Nc2ccc(-c3csc4c(-c5ccc(NC(=O)CCCN(C)C)cc5)cnc(N)c34)cc2)c1,Ki,[23],0.398 µM (active)
same,Ki,[24],0.0501 µM (active)
C/C(=N\Nc1ccc(C(F)(F)F)cc1[N+](=O)[O-])C1CC1,IC50,[25],155 µM (inactive)
COc1cc2c(Nc3ccc(Br)cc3F)ncnc2cc1OCC1CCN(C)CC1 [VANDETANIB],Ki,[26],> 2 µM (inactive)
same,Ki,[27],> 3.98 µM (inactive)
